Key:
[1] = biological target: liver alcohol dehydrogenase (LADH); conditions: inhibit the activity of LADH enzyme, ref [1]; given in words only; cited from earlier work
healthy individuals = experiment: Alcohol metabolism in test persons after vodka, alcohol level measured with CA 2000 Digital Alcohol Detector every 30 minutes; type: in vivo, human; conditions: from comparing the fructose-containing and fructose-free compositions
Experimental: The study presented in Table 2 and 3 included 10 individuals (6 males and 4 females, 24-57 years old).
In the first study (Table 2A) the test persons were given 8 oz. (ca.2.4 dl) of vodka mixed with 6 dl Sprite (The Coca Cola Company). The alcohol was consumed within one hour. 45 minutes after alcohol consumption each person drank 500 ml water. The alcohol level was then measured as described under.
One week later, the same test persons were given the same amount of vodka and Sprite. 45 minutes after alcohol consumption each test person drank 500 ml of the composition of the present invention. The alcohol level was then measured as described under.
Both part of the second study (Table 2 B) was performed in the same way as described for the study presented […], with the exception that the test persons were given a 500 ml solution containing 90 g fructose, 90 mg caffeine and 500 mg vitamin C instead of the composition of the present invention. The alcohol level was again measured as described below.
The alcohol level (measured in 0/00) was measured with a CA 2000 Digital Alcohol Detector once every 30 minutes in each experiment. Each value is an average of four parallel measurements.

SMILES	Ki [1]	contribution to the acceleration of alcohol degradation (healthy individuals)
CC(=O)N[C@@H](CS)C(=O)O [acetylcysteine]	in the uM-mM area	
N[C@@H](CS)C(=O)O [cysteine]	in the uM-mM area	
O=C(CO)[C@@H](O)[C@H](O)[C@H](O)CO [fructose]		20-25%
N[C@@H](CCC(=O)N[C@@H](CS)C(=O)NCC(=O)O)C(=O)O [glutathione]	in the uM-mM area	
CSCC[C@H](N)C(=O)O [methionine]	in the uM-mM area	
